# In the supplement of paper PMC10307832:
# How the values were obtained:
# Assay in all cases: relative viability (nuclei count vs DMSO), 5 days (fraction); higher = more cells survive
# R406 + OSI-027 = compound: COc1cc(Nc2ncc(F)c(Nc3ccc4c(n3)NC(=O)C(C)(C)O4)n2)cc(OC)c1OC [R406] + COc1cccc2cc(-c3nc([C@H]4CC[C@H](C(=O)O)CC4)n4ncnc(N)c34)[nH]c12 [OSI-027] (partner 0.5 µM)
# Summary of the method: (§1)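 The day after seeding in 1536-well plates, lung cancer cell lines were treated by pin tool with a single drug, or with a fixed anchor-drug dose together with five library-drug doses (not always all listed) in √10 steps. After 5 days, a combined fix-and-stain solution (final 0.05% Triton X-100, 1% formaldehyde, 1 ug/ml Hoechst) was added. Nuclei counted on 4× images gave relative viability as treated counts over vehicle counts, reported as the median of duplicate plates.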
# Daporinad + Dasatinib = compound: O=C(/C=C/c1cccnc1)NCCCCC1CCN(C(=O)c2ccccc2)CC1 [Daporinad] + Cc1nc(Nc2ncc(C(=O)Nc3c(C)cccc3Cl)s2)cc(N2CCN(CCO)CC2)n1 [Dasatinib] (partner 0.075 µM)
# Summary of the method: as §1
# R406 + Pictilisib = compound: COc1cc(Nc2ncc(F)c(Nc3ccc4c(n3)NC(=O)C(C)(C)O4)n2)cc(OC)c1OC [R406] + CS(=O)(=O)N1CCN(Cc2cc3nc(-c4cccc5[nH]ncc45)nc(N4CCOCC4)c3s2)CC1 [Pictilisib] (partner 1 µM)
# Summary of the method: as §1
# Daporinad + Lapatinib = compound: O=C(/C=C/c1cccnc1)NCCCCC1CCN(C(=O)c2ccccc2)CC1 [Daporinad] + CS(=O)(=O)CCNCc1ccc(-c2ccc3ncnc(Nc4ccc(OCc5cccc(F)c5)c(Cl)c4)c3c2)o1 [Lapatinib] (partner 2 µM)
# Summary of the method: as §1
Cell Line,relative viability (R406 + OSI-027; first compound 0.08 µM),relative viability (R406 + OSI-027; first compound 0.253 µM),relative viability (R406 + OSI-027; first compound 0.8 µM),relative viability (R406 + OSI-027; first compound 2.53 µM),relative viability (R406 + OSI-027; first compound 8 µM),relative viability (Daporinad + Dasatinib; first compound 0.0005 µM),relative viability (Daporinad + Dasatinib; first compound 0.001581 µM),relative viability (Daporinad + Dasatinib; first compound 0.005 µM),relative viability (Daporinad + Dasatinib; first compound 0.01581 µM),relative viability (R406 + Pictilisib; first compound 0.08 µM),relative viability (R406 + Pictilisib; first compound 0.253 µM),relative viability (R406 + Pictilisib; first compound 0.8 µM),relative viability (R406 + Pictilisib; first compound 8 µM),relative viability (Daporinad + Lapatinib; first compound 0.0005 µM),relative viability (Daporinad + Lapatinib; first compound 0.001581 µM),relative viability (Daporinad + Lapatinib; first compound 0.005 µM),relative viability (Daporinad + Lapatinib; first compound 0.01581 µM),relative viability (R406 + Pictilisib; first compound 2.53 µM)
NCI-H522,0.681,0.742,0.954,0.501,0.593,1.01,0.924,0.88,0.843,–,–,–,–,–,–,–,–,–
HCC-15,0.701,0.928,0.832,0.505,0.439,0.62,0.707,0.686,0.837,0.702,0.896,0.827,0.693,0.864,0.911,0.859,0.869,–
A-427,0.568,0.523,0.508,0.245,0.238,0.613,0.841,0.618,0.338,0.72,0.846,0.69,0.546,1.05,1.12,0.962,0.863,0.548
NCI-H2228,0.529,0.574,0.867,0.138,0.163,0.543,0.563,0.569,0.554,0.587,0.222,0.532,0.187,1.14,1.75,1.52,1.12,0.169
NCI-H1734,0.604,0.684,0.647,0.381,0.374,0.566,0.489,0.495,0.462,0.434,0.478,0.593,0.281,1.05,1.08,0.986,0.65,0.248
NCI-H441,0.528,0.683,0.574,0.255,0.408,0.665,0.614,0.618,0.662,0.387,0.375,0.544,0.258,–,–,–,–,0.206
PC-3 [JPC-3],0.854,0.872,0.932,0.494,0.427,0.928,1.01,0.943,0.947,0.764,0.762,0.814,0.421,0.433,0.459,0.437,0.455,0.467
NCI-H1915,0.619,0.708,0.581,–,0.4,0.299,0.331,0.399,0.337,0.942,1.03,0.972,0.74,0.983,1.03,1.03,0.969,0.364
NCI-H1666,0.829,0.851,0.88,0.829,0.642,0.746,0.871,0.674,0.721,0.431,0.555,0.515,0.359,0.612,0.633,0.739,0.752,0.323
HCC-366,0.938,1.02,1.04,0.0426,0.117,0.697,0.738,0.646,0.738,0.128,0.163,0.141,0.122,1.06,1.02,1.08,1.02,0.113
NCI-H2170,0.734,0.654,0.688,0.415,0.648,0.631,0.465,0.616,0.566,0.307,0.269,0.302,0.24,0.285,0.263,0.274,0.276,0.194
NCI-H727,0.712,0.829,0.641,0.304,0.537,0.475,0.327,0.437,0.364,0.386,0.508,0.354,0.252,0.968,0.831,0.853,0.76,0.175
RERF-LC-KJ,0.609,0.588,0.623,0.432,0.392,0.757,0.804,0.975,0.804,0.749,0.488,0.64,0.502,0.682,0.803,0.799,0.888,0.43
NCI-H2342,0.536,0.569,0.653,0.61,0.513,0.316,0.299,0.339,0.295,–,–,–,–,–,–,–,–,–
Calu-6,–,–,–,–,–,–,–,–,–,0.861,0.957,1.01,0.369,1.06,0.959,0.863,0.413,0.585
LC-2-ad,0.872,0.878,0.838,0.504,0.34,0.622,0.539,0.68,0.765,0.554,0.309,0.596,0.0919,0.959,1.03,0.936,0.972,0.12
CAL-12T,0.654,0.702,0.895,0.133,0.209,0.342,0.409,0.37,0.134,0.296,0.575,0.457,0.185,0.599,–,0.722,0.413,0.193
SK-LU-1,0.312,0.337,0.424,0.153,0.0841,0.209,0.184,0.204,0.235,0.46,0.658,0.546,0.173,0.889,0.907,1.09,0.969,0.277
NCI-H1650,0.719,0.644,0.637,0.132,0.137,0.379,0.366,0.325,0.247,0.645,0.668,0.652,0.122,0.792,0.922,0.95,0.875,0.148
